From PMC4601023, “Novel anticancer agent, SQAP, binds to focal adhesion kinase and modulates its activity” (Scientific Reports, 2015)

Assays:
HUVEC cells = test: Wound healing assay, HUVEC; type: cell-based, human; conditions: 11 h, 1% FBS and VEGF 50 ng/mL, control 32%
Description: Figure 6 SQAP inhibits cell migration in vitro. (A) HUVEC cells were seeded and grown to 100% confluence in 60-mm diameter dishes. After generating a single scratch in the monolayer, the cells were cultured for 11 h in medium containing 1% FBS and VEGF (50 ng/mL) in the presence or absence of SQAP. Photographs were taken immediately after 11 h. (B) The change in wound width was measured as described in the Materials and Methods. (C) A549 cells were seeded and grown to 100% confluence in 60-mm diameter dishes. After generating a single scratch in the monolayer, the cells cultured for the 25 h in media containing 1% FBS and fibronectin (10 μg/ml) treated with SQAP or vehicle. Photographs were collected immediately after wounding and after 25 h. (D) The change in wound width was measured as described in the Materials and Methods. Cell migration was additionally examined in 96 well plates. HUVEC (E) and A549 cells (F) were seeded and grown into confluence overnight. After removing the stoppers, the live cells were stained with CellTracker^TM Green and incubated for the indicated time. The fluorescent emission signal was obtained with a plate reader. […]
Wound healing assay was analyzed by microscope imaging. […] Wound diameters in the images were measured and percentage of wound size was calculated as follows: [wound diameter at 11 or 25 h/wound diameter at 0 h] x 100.

VEGF = VEGF (Homo sapiens, UniProt P15692); test: SPR analysis of SQAP-VEGF interaction; type: binding; conditions: data not shown
VEGF, sequence (P15692 whole entry, species assumed, the tested form may be a part): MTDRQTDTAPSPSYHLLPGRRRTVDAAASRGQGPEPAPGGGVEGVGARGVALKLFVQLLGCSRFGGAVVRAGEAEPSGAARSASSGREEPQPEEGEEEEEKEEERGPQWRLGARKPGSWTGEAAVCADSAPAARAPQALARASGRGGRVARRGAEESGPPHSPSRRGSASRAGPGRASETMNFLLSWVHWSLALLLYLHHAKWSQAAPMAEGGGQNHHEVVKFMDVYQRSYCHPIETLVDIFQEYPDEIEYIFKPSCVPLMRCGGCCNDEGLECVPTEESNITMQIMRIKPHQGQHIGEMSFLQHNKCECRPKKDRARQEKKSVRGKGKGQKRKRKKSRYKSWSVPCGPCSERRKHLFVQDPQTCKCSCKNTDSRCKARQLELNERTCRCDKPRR
Excerpt: The phosphorylation of FAK in response to VEGF plays an important role in the regulation of endothelial cell migration during angiogenesis. Therefore we hypothesized that SQAP activity could potentially be mediated through binding to FAK. […] In this region, FAK interacts with paxillin through FAT domain and becomes autophosphorylated on Y397[29][30]. Y397 is an autophosphorylation site which is crucial for FAK activity and has been related to apoptosis and tumor growth. FAK is also phosphorylated at Y925, leading to the regulation of adhesion turnover and cell motility. Thus we chose to study the FAK phosphorylation on Y397 and Y925 residues. Initially, we examined whether SQAP affected phosphorylation of FAK in HUVEC cells stimulated with VEGF in the presence or absence of SQAP. […] Since SQMG was previously reported to bind to VEGF[34], we could not rule out the possibility of a binding between SQAP and VEGF so we analyzed this interaction by SPR. […] Therefore, we investigated whether SQAP could inhibit FAK phosphorylation independently of VEGF. We analyzed FAK phosphorylation in the absence of VEGF and observed that SQAP inhibited the phosphorylation of FAK signal within 1 h in a VEGF independent manner (Fig. 5B). Additionally, we treated HUVEC with VEGF in the presence of SQMG and SQP.

SCP-2 (400–547) = molecular target: T1, SCP-2 (400–547) (Homo sapiens, UniProt P22307); test: SPR analysis, immobilized His-tagged SCP-2 (400-547); type: binding; conditions: Biacore 3000, CM5 chip, 25 °C, read-out: dissociation constant (KD) for SCP-2
T1 construct: DNA encoding SCP-2 (400–547) was amplified; made in house; host or cells: E. coli Rosetta 2 (DE3) pLysS
T1 sequence (P22307 400-547): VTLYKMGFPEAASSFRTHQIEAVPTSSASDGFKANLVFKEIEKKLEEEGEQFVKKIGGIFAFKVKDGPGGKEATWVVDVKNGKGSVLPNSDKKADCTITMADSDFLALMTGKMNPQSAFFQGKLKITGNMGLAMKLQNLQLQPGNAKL
Excerpt: SPR was utilized as an independent confirmation of the kinetic parameters between SQAP and the putative binding proteins. […] The recombinant proteins were then expressed in Escherichia coli and purified to homogeneity. In addition, full length, His-tagged ADRM1 and GST-tagged HR23B (GST-HR23B) were also used. The proteins were first immobilized on a CM5 sensor chip of the SPR biosensor (Biacore 3000). For GST-HR23B analysis, a GST protein was additionally immobilized and used as a control in order to eliminate possible nonspecific binding of SQAP. SQAP samples at different concentrations were then injected over the proteins immobilized on the sensor chip. As a negative control we used sulfoquynovosylpropanediol (SQP), which lacks the fatty acid moiety of SQAP (Fig. 1). […]
The binding kinetics of SCP-2, MFE-2, ADRM1, HR23B and FAK with SQAP and SQP were analyzed on a Biacore 3000 instrument (GE Healthcare, Little Chalfont, UK). […] The buffer of purified peptides was exchanged to HBS-P (150 mM NaCl, 0.005% Surfactant P20, 10 mM HEPES-NaOH pH 7.4) using a PD 10 column (GE Healthcare, Little Chalfont, UK) and the concentrations were quantified using DC protein assay kit (Bio-Rad Laboratories, Hercules, CA, USA). […] Kinetic parameters were determined by analyzing the data using BIAevaluation 4.1 software (GE Healthcare, Little Chalfont, UK).

binding to VEGF (SPR) (VEGF): did bind
Kd (SCP-2 (400–547)): 15.6 µM
Compound: CCCCCCCCCCCCCCCCCC(=O)OCCCO[C@H]1O[C@H](CS(=O)(=O)O)[C@@H](O)[C@H](O)[C@H]1O [SQAP, sulfoquynovosylacylpropanediol]
wound size (HUVEC cells): 62%
